In patent US20040067531A1, “Methods of modulating protein tyrosine kinase function with substituted indolinone compounds” (SUGEN, INC., priority 1997, published 2004):

Molecular target: T1, FLK-1 receptor (Mus musculus, UniProt P35918)
T1 construct: expressed in transfected cells; host or cells: NIH3T3 C7#3
Test: ELISA assay measuring the kinase activity of the FLK-1 receptor in cells engineered to express FLK-1
Assay type: cell-based
Conditions: NIH3T3 C7#3 FLK-1 expressing cells, VEGF stimulation, phosphotyrosine ELISA
Procedure: An ELISA assay was conducted to measure the kinase activity of the FLK-1 receptor and more specifically, the inhibition or activation of TK activity on the FLK-1 receptor. Specifically, the following assay was conducted to measure kinase activity of the FLK-1 receptor in cells genetically engineered to express FLK-1.
(11) NIH3T3 C7#3 Cells (FLK-1 expressing cells);
The following protocol was used for conducting the assay:
1. Coat Corning 96-well elisa plates with 1.0 μg per well Cappel Anti-rabbit IgG antibody in 0.1 M Na2CO3 pH 9.6. Bring final volume to 150 μL per well. Coat plates overnight at 4° C. Plates can be kept up to two weeks when stored at 4° C.
2. Grow cells in Growth media (DMEM, supplemental with 2.0 mM L-Glutamine, 10% FBS) in suitable culture dishes until confluent at 37° C., 5% CO2.
3. Harvest cells by trypsinization and seed in Corning 25850 polystyrene 96-well roundbottom cell plates, 25.000 cells/well in 200 μL of growth media.
4. Grow cells at least one day at 37° C., 5% CO2.
5. Wash cells-with D-PBS 1×.
6. Add 200 μL/well of starvation media (DMEM, 2.0 mM 1-Glutamine, 0.1% FBS). Incubate overnight at 37° C., 5% CO2.
7. Dilute Compounds 1:20 in polypropylene 96 well plates using starvation media. Dilute dimethylsulfoxide 1:20 for use in control wells.
8. Remove starvation media from 96 well cell culture plates and add 162 μL of fresh starvation media to each well.
9. Add 18 μL of 1:20 diluted Compound dilution (from step 7) to each well plus the 1:20 dimethylsulfoxide dilution to the control wells (+/− VEGF), for a final dilution of 1:200 after cell stimulation. Final dimethylsulfoxide is 0.5%. Incubate the plate at 37° C., 5% CO2 for two hours.
10. Remove unbound antibody from ELISA plates by inverting plate to remove liquid. Wash 3 times with TBSW+0.5% ethanolamine, pH 7.0. Pat the plate on a paper towel to remove excess liquid and bubbles.
11. Block plates with TBSW+0.5% Ethanolamine, pH 7.0, 150 μL per well. Incubate plate thirty minutes while shaking on a microliter plate shaker.
12. Wash plate 3 times as described in step 10.
13. […] Bring final volume to 150 μL/well with TBSW+0.5% ethanolamine pH 7.0. Incubate plate for thirty minutes while shaking.
14. Add 180 μL starvation medium to the cells and stimulate cells with 20 μL/well 10.0 mM sodium ortho vanadate and 500 ng/mL VEGF (resulting in a final concentration of 1.0 mM sodium ortho vanadate and 50 ng/mL VEGF per well) for eight minutes at 37° C., 5% CO2. Negative control wells receive only starvation medium.
15. After eight minutes, media should be removed from the cells and washed one time with 200 μL/well PBS.
16. Lyse cells in 150 μL/well HNTG while shaking at room temperature for five minutes. HNTG formulation includes sodium ortho vanadate, sodium pyro phosphate and EDTA.
17. Wash ELISA plate three times as described in step 10.
18. Transfer cell lysates from the cell plate to ELISA plate and incubate while shaking for two hours. To transfer cell lysate pipette up and down while scrapping the wells.
19. Wash plate three times as described in step 10.
20. Incubate ELISA plate with 0.02 μg/well UB40 in TBSW+05% ethanolamine. Bring final volume to 150 μL/well. Incubate while shaking for 30 minutes.
21. Wash plate three times as described in step 10.
22. Incubate ELISA plate with 1:10,000 diluted EIA grade goat anti-mouse IgG conjugated horseradish peroxidase in TBSW+0.5% ethanolamine, pH 7.0. Bring final volume to 150 μL/well. Incubate while shaking for thirty minutes.
23. Wash plate as described in step 10.
24. Add 100 μL of ABTS/H2O2 solution to well. Incubate ten minutes while shaking.
25. Add 100 μL of 0.2 M HCl for 0.1 M HCl final to stop the color development reaction. Shake 1 minute at room temperature. Remove bubbles with slow stream of air and read the ELISA plate in an ELISA plate reader at 410 nm.
The IC50 values were measured for several of the compounds of the invention.

T1 sequence (P35918 20-1345): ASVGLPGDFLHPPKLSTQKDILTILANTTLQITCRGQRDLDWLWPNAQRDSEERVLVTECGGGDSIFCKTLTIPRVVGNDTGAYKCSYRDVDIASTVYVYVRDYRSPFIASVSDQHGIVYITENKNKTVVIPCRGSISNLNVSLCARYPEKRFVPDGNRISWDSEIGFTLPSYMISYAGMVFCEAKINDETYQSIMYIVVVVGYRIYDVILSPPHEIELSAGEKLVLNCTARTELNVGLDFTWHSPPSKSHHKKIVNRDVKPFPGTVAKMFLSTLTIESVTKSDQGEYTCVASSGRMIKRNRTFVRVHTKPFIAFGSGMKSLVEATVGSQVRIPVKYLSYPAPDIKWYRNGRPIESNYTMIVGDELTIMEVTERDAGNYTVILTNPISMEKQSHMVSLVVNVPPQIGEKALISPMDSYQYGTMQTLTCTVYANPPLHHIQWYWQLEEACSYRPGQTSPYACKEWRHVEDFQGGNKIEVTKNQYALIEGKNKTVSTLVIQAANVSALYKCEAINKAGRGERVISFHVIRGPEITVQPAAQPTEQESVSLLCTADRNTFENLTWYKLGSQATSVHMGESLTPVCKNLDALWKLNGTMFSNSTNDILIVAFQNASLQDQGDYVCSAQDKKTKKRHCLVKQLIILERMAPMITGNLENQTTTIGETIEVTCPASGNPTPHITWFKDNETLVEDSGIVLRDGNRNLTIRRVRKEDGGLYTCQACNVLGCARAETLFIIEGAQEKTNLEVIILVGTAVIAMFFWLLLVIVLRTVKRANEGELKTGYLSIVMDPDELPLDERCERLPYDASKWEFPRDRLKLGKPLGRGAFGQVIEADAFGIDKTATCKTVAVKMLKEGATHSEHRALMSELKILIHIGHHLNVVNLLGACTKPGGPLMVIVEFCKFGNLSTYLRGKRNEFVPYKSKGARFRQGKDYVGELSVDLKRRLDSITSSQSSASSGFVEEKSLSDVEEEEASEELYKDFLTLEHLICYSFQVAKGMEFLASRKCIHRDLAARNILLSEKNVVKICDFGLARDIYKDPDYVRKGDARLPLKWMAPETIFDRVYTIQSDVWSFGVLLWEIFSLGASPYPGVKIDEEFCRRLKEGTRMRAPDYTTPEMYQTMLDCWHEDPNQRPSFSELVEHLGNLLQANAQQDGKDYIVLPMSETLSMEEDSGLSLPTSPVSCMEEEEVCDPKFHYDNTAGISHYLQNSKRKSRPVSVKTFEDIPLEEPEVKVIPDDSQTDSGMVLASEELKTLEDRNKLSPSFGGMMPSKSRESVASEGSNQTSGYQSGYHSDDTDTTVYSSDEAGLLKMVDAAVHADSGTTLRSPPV

Question: CN(C)CCCc1c(C=C2C(=O)Nc3ccccc32)[nH]c2c1CCCC2 [IN-009, 3-[3-(3-Dimethylamino-propyl)-4,5,6,7-tetrahydro-1H-indol-2-ylmethylene]-1,3-dihydro-indol-2-one] was tested. Which IC50 did it give?
Answer: The IC50 was 7.4 µM.

Question: O=C(O)CCc1c(C=C2C(=O)Nc3ccc(Cl)cc32)[nH]c2c1CCCC2 [IN-002, 3-[2-(5-Chloro-2-oxo-1,2-dihydro-indol-3-ylidenemethyl)-4,5.6,7-tetrahydro-1H-indol-3-yl]-propionic acid] was tested. Which IC50 did it give?
Answer: The IC50 was 0.022 µM.

Question: Which IC50 does the source give for Cc1c[nH]c(C=C2C(=O)Nc3ccc(Br)cc32)c1CCC(=O)O [IN-031, 3-[2-(5-Bromo-2-oxo-1,2-dihydro-indol-3-ylidenemethyl)-4-methyl-1H-pyrrol-3-yl]-propionic acid] here?
Answer: Its IC50 is 0.35 µM.

Question: How did the IC50 turn out when Cc1c[nH]c(C=C2C(=O)Nc3cc(Cl)ccc32)c1CCC(=O)O [IN-030, 3-[2-(6-Chloro-2-oxo-1,2-dihydro-indol-3-ylidenemethyl)-4-methyl-1H-pyrrol-3-yl]-propionic acid] was run?
Answer: Its IC50 is 0.19 µM.

Question: How did the IC50 turn out when O=C1Nc2ccccc2C1=Cc1[nH]c2c(c1CCC(=O)N1CCOCC1)CCCC2 [IN-011, 3-[3-(3-Morpholin-4-yl-3-oxo-propyl)-4,5 6,7-tetrahydro-1H-indol-2-ylmethylene]-1,3-dihydro-indol-2-one] was run?
Answer: Its IC50 is under 0.78 µM.

Question: Cc1ccc2c(c1)C(=Cc1[nH]c3c(c1CCC(=O)O)CCCC3)C(=O)N2 [IN-005, 3-[2-(5-Methyl-2-oxo-1,2-dihydro-indol-3-ylidenemethyl)-4,5,6,7-tetrahydro-1H-indol-3-yl]-propionic acid] was tested. Which IC50 did it give?
Answer: Its IC50 is 0.063 µM.

Question: With COc1ccc2c(c1)NC(=O)C2=Cc1[nH]cc(C)c1CCC(=O)O [IN-028, 3-[2-(6-Methoxy-2-oxo-1,2-dihydro-indol-3-ylidenemethyl)-4-methyl-1H-pyrrol-3-yl]-propionic acid] as the compound, how does the IC50 read?
Answer: The IC50 was 1.5 µM.

Question: With O=C(O)CCc1c(C=C2C(=O)Nc3ccccc32)[nH]c2c1CCCC2 [IN-001, 3-[2-(2-Oxo-1,2-dihydro-indol-3-ylidenemethyl)-4,5,6,7-tetrahydro-1H-indol-3-yl]-propionic acid] as the compound, how does the IC50 read?
Answer: The IC50 was 0.062 µM.

Question: How did the IC50 turn out when Cc1c[nH]c(C=C2C(=O)Nc3ccccc32)c1CCC(=O)O [IN-026, 3-[4-Methyl-2-(2-oxo-1,2-dihydro-indol-3-ylidenemethyl)-1H-pyrrol-3-yl]-propionic acid] was run?
Answer: Its IC50 is 0.2 µM.

Question: With O=C(CCc1c(C=C2C(=O)Nc3ccccc32)[nH]c2c1CCCC2)NCCN1CCOCC1 [IN-013, N-(2-Morpholin-4-yl-ethyl)-3-[2-(2-oxo-1,2-dihydro-indol-3-ylidenemethyl)-4,5,6,7-tetrahydro-1H-indol-3-yl]-propionamide] as the compound, how does the IC50 read?
Answer: Its IC50 is 0.63 µM.

Question: With Cc1c[nH]c(C=C2C(=O)Nc3ccc(Cl)cc32)c1CCC(=O)O [IN-027, 3-[2-(5-Chloro-2-oxo-1,2-dihydro-indol-3-ylidenemethyl)-4-methyl-1H-pyrrol-3-yl]-propionic acid] as the compound, how does the IC50 read?
Answer: Its IC50 is 2.9 µM.

Question: For CNC(=O)CCc1c(C=C2C(=O)Nc3ccccc32)[nH]c2c1CCCC2 [IN-012, N-Methyl-3-[2-(2-oxo-1,2-dihydro-indol-3-ylidenemethyl)-4,5,6,7-tetrahydro-1H-indol-3-yl]-propionamide], which IC50 is on record?
Answer: The IC50 was under 0.78 µM.

Question: For Cc1cccc2c1C(=Cc1[nH]c3c(c1CCC(=O)O)CCCC3)C(=O)N2 [IN-004, 3-[2-(4-Methyl-2-oxo-1,2-dihydro-indol-3-ylidenemethyl)-4,5,6,7-tetrahydro-1H-indol-3-yl]-propionic acid], which IC50 is on record?
Answer: The IC50 was 0.023 µM.

Question: For O=C(O)CCc1c(C=C2C(=O)Nc3ccc(Br)cc32)[nH]c2c1CCCC2 [IN-003, 3-[2-(5-Bromo-2-oxo-1,2-dihydro-indol-3-ylidenemethyl)-4,5,6,7-tetrahydro-1H-indol-3-yl]-propionic acid], which IC50 is on record?
Answer: Its IC50 is 0.029 µM.

Question: For Cc1c[nH]c(C=C2C(=O)Nc3cccc(C)c32)c1CCC(=O)O [IN-029, 3-[2-(4-Methyl-2-oxo-1,2-dihydro-indol-3-ylidenemethyl)-4-methyl-1H-pyrrol-3-yl]-propionic acid], which IC50 is on record?
Answer: The IC50 was 0.2 µM.

Question: Which IC50 does the source give for CN(C)C(=O)CCc1c(C=C2C(=O)Nc3ccccc32)[nH]c2c1CCCC2 [IN-008, N,N-Dimethyl-3-[2-(2-oxo-1,2-dihydro-indol-3-ylidenemethyl)-4,5,6,7-tetrahydro-1H-indol-3-yl]-propionamide] here?
Answer: The IC50 was 0.5 µM.

Question: With NC(=O)CCc1c(C=C2C(=O)Nc3ccccc32)[nH]c2c1CCCC2 [IN-010, 3-[2-(2-Oxo-1,2-dihydro-indol-3-ylidenemethyl)-4,5,6,7-tetrahydro-1H-indol-3-yl]-propionamide] as the compound, how does the IC50 read?
Answer: Its IC50 is 0.13 µM.

Question: COc1ccc2c(c1)NC(=O)C2=Cc1[nH]c2c(c1CCC(=O)O)CCCC2 [IN-007, 3-[2-(6-Methoxy-2-oxo-1,2-dihydro-indol-3-ylidenemethyl)-4,5,6,7-tetrahydro-1H-indol-3-yl]-propionic acid] was tested. Which IC50 did it give?
Answer: The IC50 was 0.81 µM.
